What was measured:
HCT116 MTAP null cells = experiment: HCT116 MTAP null cell proliferation / viability (CellTiter-Glo, 6 days); format: cell-based; conditions: HCT116-MTAP null, 144 h, HCT116 MTAP null cells, 6 days, CellTiter-Glo; read-out: HCT-116 MTAP null IC50
Procedure, shortened: (§1)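 Viability read by CellTiter-Glo after 6-day compound exposure of MTAP-null and wild-type HCT116 cells grown in RPMI 1640 with 10% FBS. Dosing used 1:3 steps from 1 or 10 μM (8-9 points) or 1:2 steps from 10 or 50 μM (22 points); IC50 taken where fitted curve crosses 50% of control.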

HCT116 WT cells = experiment: HCT116 WT cell proliferation / viability (CellTiter-Glo, 6 days); format: cell-based; conditions: Homo sapiens, HCT-116, 144 h, HCT116 WT cells, 6 days, CellTiter-Glo; read-out: HCT-116 WT IC50
Procedure, shortened: as §1

IC50 (HCT116 MTAP null cells)	IC50 (HCT116 WT cells)	Structure (SMILES)
56 nM	2320 nM	CN(Cc1ccc(C(F)(F)F)cc1)C(=O)c1cc2c(cn1)nc(N)c1cnn(C)c12 [Example 544, 4-amino-N,1-dimethyl-N-(4-(trifluoromethyl)benzyl)-1H-pyrazolo[4,3-c][1,7]naphthyridine-8-carboxamide]
7 nM	140 nM	CCN(Cc1ccc(C2CC2)cn1)C(=O)c1cc2c(cc1F)nc(N)c1cnn(C)c12 [Example 545, 4-amino-N-((5-cyclopropyl-2-pyridinyl)methyl)-N-ethyl-7-fluoro-1-methyl-1H-pyrazolo[4,3-c]quinoline-8-carboxamide]
19 nM	976 nM	CCN(Cc1ccc(C(F)(F)F)cn1)C(=O)c1ccc2nc(N)c3cnn(C)c3c2c1 [Example 546, 4-amino-N-ethyl-1-methyl-N-((5-(trifluoromethyl)-2-pyridinyl)methyl)-1H-pyrazolo[4,3-c]quinoline-8-carboxamide]
668 nM	24500 nM	CCN(Cc1ccc(C(F)(F)F)cn1)C(=O)c1ccc2nc(N)c3c(C)noc3c2c1 [Example 547, 4-amino-N-ethyl-3-methyl-N-((5-(trifluoromethyl)-2-pyridinyl)methyl)[1,2]oxazolo[4,5-c]quinoline-8-carboxamide]
78 nM	6870 nM	CCN(Cc1ccc(C(F)(F)F)nn1)C(=O)c1ccc2nc(N)c3cnn(C)c3c2c1 [Example 548, 4-amino-N-ethyl-1-methyl-N-((6-(trifluoromethyl)-3-pyridazinyl)methyl)-1H-pyrazolo[4,3-c]quinoline-8-carboxamide]
20 nM	487 nM	CCN(Cc1ccc(C(F)(F)F)cn1)C(=O)c1cc2c(cn1)nc(N)c1cnn(C)c12 [Example 549, 4-amino-N-ethyl-1-methyl-N-((5-(trifluoromethyl)-2-pyridinyl)methyl)-1H-pyrazolo[4,3-c][1,7]naphthyridine-8-carboxamide]
66 nM	1800 nM	CCN(Cc1ccc(C(F)(F)F)nn1)C(=O)c1cc2c(cn1)nc(N)c1cnn(C)c12 [Example 550, 4-amino-N-ethyl-1-methyl-N-((6-(trifluoromethyl)-3-pyridazinyl)methyl)-1H-pyrazolo [4,3-c][1,7]naphthyridine-8-carboxamide]
125 nM	5570 nM	CCN(Cc1ccc(C(F)(F)F)nn1)C(=O)c1ccc2nc(N)c3c(c2c1)CO[C@@H]3C [Example 551, (3R)-4-amino-N-ethyl-3-methyl-N-((6-(trifluoromethyl)-3-pyridazinyl)methyl)-1,3-dihydrofuro[3,4-c]quinoline-8-carboxamide]
25 nM	1880 nM	CN(Cc1ccc(C(F)(F)F)cc1)C(=O)c1cc2c(cc1F)nc(N)c1cnn(C)c12 [Example 552, 4-amino-7-fluoro-N,1-dimethyl-N-(4-(trifluoromethyl)benzyl)-1H-pyrazolo[4,3-c]quinoline-8-carboxamide]
247 nM	12400 nM	CCN(Cc1ccc(C(F)(F)F)cn1)C(=O)c1cc2c(cn1)nc(N)c1c(C)nn(C)c12 [Example 553, 4-amino-N-ethyl-1,3-dimethyl-N-((5-(trifluoromethyl)-2-pyridinyl)methyl)-1H-pyrazolo[4,3-c][1,7]naphthyridine-8-carboxamide]
8 nM	181 nM	CCN(Cc1ccc(C(F)(F)F)cn1)C(=O)c1cc2c(cc1F)nc(N)c1cnn(C)c12 [Example 554, 4-amino-N-ethyl-7-fluoro-1-methyl-N-((5-(trifluoromethyl)-2-pyridinyl)methyl)-1H-pyrazolo[4,3-c]quinoline-8-carboxamide]
23 nM	2040 nM	CCN(Cc1ccc(C(F)(F)F)nn1)C(=O)c1cc2c(cc1F)nc(N)c1cnn(C)c12 [Example 555, 4-amino-N-ethyl-7-fluoro-1-methyl-N-((6-(trifluoromethyl)-3-pyridazinyl)methyl)-1H-pyrazolo[4,3-c]quinoline-8-carboxamide]
14 nM	458 nM	CCN(Cc1ccc(C(F)(F)F)cn1)C(=O)c1cc2c3c(c(N)nc2cc1F)[C@@H](C)OC3 [Example 556, (3R)-4-amino-N-ethyl-7-fluoro-3-methyl-N-((5-(trifluoromethyl)-2-pyridinyl)methyl)-1,3-dihydrofuro[3,4-c]quinoline-8-carboxamide]
375 nM	12300 nM	CCN(Cc1ccc(C(F)(F)F)cn1)C(=O)c1cc2c3c(c(N)nc2cc1F)[C@H](C)OC3 [Example 557, (3S)-4-amino-N-ethyl-7-fluoro-3-methyl-N-((5-(trifluoromethyl)-2-pyridinyl)methyl)-1,3-dihydrofuro[3,4-c]quinoline-8-carboxamide]
19 nM	421 nM	CN(Cc1ccc(C(F)(F)F)cc1)C(=O)c1cc2c(cc1Cl)nc(N)c1cnn(C)c12 [Example 558, 4-amino-7-chloro-N,1-dimethyl-N-(4-(trifluoromethyl)benzyl)-1H-pyrazolo[4,3-c]quinoline-8-carboxamide]
30 nM	1180 nM	CCN(Cc1ccc(C(F)(F)F)nn1)C(=O)c1cc2c3c(c(N)nc2cc1F)[C@@H](C)OC3 [Example 559, (3R)-4-amino-N-ethyl-7-fluoro-3-methyl-N-((6-(trifluoromethyl)-3-pyridazinyl)methyl)-1,3-dihydrofuro[3,4-c]quinoline-8-carboxamide]
56 nM	4140 nM	CCN(Cc1ccc(C(F)(F)F)cn1)C(=O)c1cc2c(cc1F)nc(N)c1c(C)nn(C)c12 [Example 560, 4-amino-N-ethyl-7-fluoro-1,3-dimethyl-N-((5-(trifluoromethyl)-2-pyridinyl)methyl)-1H-pyrazolo[4,3-c]quinoline-8-carboxamide]
89 nM	5330 nM	CN(Cc1ccc(C(F)(F)C(F)(F)F)cc1)C(=O)c1ccc2nc(N)c3cnn(C)c3c2c1 [Example 561, 4-amino-N,1-dimethyl-N-(4-(pentafluoroethyl)benzyl)-1H-pyrazolo[4,3-c]quinoline-8-carboxamide]
86 nM	3530 nM	CN(Cc1ccc(C(F)(F)C(F)(F)F)cc1)C(=O)c1cc2c(cn1)nc(N)c1cnn(C)c12 [Example 562, 4-amino-N,1-dimethyl-N-(4-(pentafluoroethyl)benzyl)-1H-pyrazolo[4,3-c][1,7]naphthyridine-8-carboxamide]
28 nM	2080 nM	CN(Cc1ccc(C(F)(F)C(F)(F)F)cc1)C(=O)c1cc2c(cc1F)nc(N)c1cnn(C)c12 [Example 563, 4-amino-7-fluoro-N,1-dimethyl-N-(4-(pentafluoroethyl)benzyl)-1H-pyrazolo[4,3-c]quinoline-8-carboxamide]
21 nM	925 nM	CCN(Cc1ccc(S(F)(F)(F)(F)F)cc1)C(=O)c1ccc2nc(N)c3cnn(C)c3c2c1 [Example 564, 4-amino-N-ethyl-1-methyl-N-(4-(pentafluoro-lambda~6~- sulfanyl)benzyl)-1H-pyrazolo[4,3-c]quinoline-8-carboxamide]
19 nM	653 nM	CCN(Cc1ccc(S(F)(F)(F)(F)F)cc1)C(=O)c1cc2c(cn1)nc(N)c1cnn(C)c12 [Example 565, 4-amino-N-ethyl-1-methyl-N-(4-(pentafluoro-lambda~6~- sulfanyl)benzyl)-1H-pyrazolo[4,3-c][1,7]naphthyridine-8-carboxamide]
13 nM	181 nM	CCN(Cc1ccc(S(F)(F)(F)(F)F)cc1)C(=O)c1cc2c(cc1F)nc(N)c1cnn(C)c12 [Example 566, 4-amino-N-ethyl-7-fluoro-1-methyl-N-(4-(pentafluoro-lambda~6~-sulfanyl)benzyl)-1H-pyrazolo[4,3-c]quinoline-8-carboxamide]
90 nM	6790 nM	CN(Cc1ccc(C(F)(F)F)cn1)C(=O)c1ccc2nc(N)c3cnn(C)c3c2c1 [Example 567, 4-amino-N,1-dimethyl-N-((5-(trifluoromethyl)-2-pyridinyl)methyl)-1H-pyrazolo[4,3-c]quinoline-8-carboxamide]
91 nM	5390 nM	CN(Cc1ccc(C(F)(F)F)cn1)C(=O)c1cc2c(cn1)nc(N)c1cnn(C)c12 [Example 568, 4-amino-N,1-dimethyl-N-((5-(trifluoromethyl)-2-pyridinyl)methyl)-1H-pyrazolo[4,3-c][1,7]naphthyridine-8-carboxamide]
31 nM	3890 nM	Cn1ncc2c(N)nc3ccc(C(=O)N(Cc4ccc(C(F)(F)F)cn4)C4CC4)cc3c21 [Example 569, 4-amino-N-cyclopropyl-1-methyl-N-((5-(trifluoromethyl)-2-pyridinyl)methyl)-1H-pyrazolo[4,3-c]quinoline-8-carboxamide]
757 nM	329 nM	Nc1nc2cc(F)c(C(=O)N(Cc3ccc(C(F)(F)F)cn3)C3CC3)cc2c2c1cnn2CC(F)(F)F [Example 570, 4-amino-N-cyclopropyl-7-fluoro-1-(2,2,2-trifluoroethyl)-N-((5-(trifluoromethyl)-2-pyridinyl)methyl)-1H-pyrazolo[4,3-c]quinoline-8-carboxamide]
71 nM	4930 nM	CN(Cc1ccc(C(F)(F)F)nn1)C(=O)c1cc2c(cc1F)nc(N)c1cnn(C)c12 [Example 571, 4-amino-7-fluoro-N,1-dimethyl-N-((6-(trifluoromethyl)-3-pyridazinyl)methyl)-1H-pyrazolo[4,3-c]quinoline-8-carboxamide]
939 nM	> 50000 nM	CN(Cc1ccc(C(F)(F)F)cn1)C(=O)c1cc2c3c(c(N)nc2cc1C(F)(F)F)COC3 [Example 572, 4-amino-N-methyl-7-(trifluoromethyl)-N-((5-(trifluoromethyl)-2-pyridinyl)methyl)-1,3-dihydrofuro[3,4-c]quinoline-8-carboxamide]
